Measured values as given in ChEMBL document CHEMBL3997794, “Design and synthesis of benzodiazepine analogs as isoform-selective human lysine deacetylase inhibitors” (Eur J Med Chem, 2017).

Columns and labels:
Histone deacetylase 1 [1] = biological target: T1, Histone deacetylase 1 (Homo sapiens, UniProt Q13547); assay: Inhibition of human KDAC1 at 30 uM using substrate A after 60 mins by fluorescence assay relative to control
[2] = biological target: T2, Protein deacetylase HDAC6 (Homo sapiens) (UniProt Q9UBN7); conditions: at 30 µM
T2 sequence (whole entry): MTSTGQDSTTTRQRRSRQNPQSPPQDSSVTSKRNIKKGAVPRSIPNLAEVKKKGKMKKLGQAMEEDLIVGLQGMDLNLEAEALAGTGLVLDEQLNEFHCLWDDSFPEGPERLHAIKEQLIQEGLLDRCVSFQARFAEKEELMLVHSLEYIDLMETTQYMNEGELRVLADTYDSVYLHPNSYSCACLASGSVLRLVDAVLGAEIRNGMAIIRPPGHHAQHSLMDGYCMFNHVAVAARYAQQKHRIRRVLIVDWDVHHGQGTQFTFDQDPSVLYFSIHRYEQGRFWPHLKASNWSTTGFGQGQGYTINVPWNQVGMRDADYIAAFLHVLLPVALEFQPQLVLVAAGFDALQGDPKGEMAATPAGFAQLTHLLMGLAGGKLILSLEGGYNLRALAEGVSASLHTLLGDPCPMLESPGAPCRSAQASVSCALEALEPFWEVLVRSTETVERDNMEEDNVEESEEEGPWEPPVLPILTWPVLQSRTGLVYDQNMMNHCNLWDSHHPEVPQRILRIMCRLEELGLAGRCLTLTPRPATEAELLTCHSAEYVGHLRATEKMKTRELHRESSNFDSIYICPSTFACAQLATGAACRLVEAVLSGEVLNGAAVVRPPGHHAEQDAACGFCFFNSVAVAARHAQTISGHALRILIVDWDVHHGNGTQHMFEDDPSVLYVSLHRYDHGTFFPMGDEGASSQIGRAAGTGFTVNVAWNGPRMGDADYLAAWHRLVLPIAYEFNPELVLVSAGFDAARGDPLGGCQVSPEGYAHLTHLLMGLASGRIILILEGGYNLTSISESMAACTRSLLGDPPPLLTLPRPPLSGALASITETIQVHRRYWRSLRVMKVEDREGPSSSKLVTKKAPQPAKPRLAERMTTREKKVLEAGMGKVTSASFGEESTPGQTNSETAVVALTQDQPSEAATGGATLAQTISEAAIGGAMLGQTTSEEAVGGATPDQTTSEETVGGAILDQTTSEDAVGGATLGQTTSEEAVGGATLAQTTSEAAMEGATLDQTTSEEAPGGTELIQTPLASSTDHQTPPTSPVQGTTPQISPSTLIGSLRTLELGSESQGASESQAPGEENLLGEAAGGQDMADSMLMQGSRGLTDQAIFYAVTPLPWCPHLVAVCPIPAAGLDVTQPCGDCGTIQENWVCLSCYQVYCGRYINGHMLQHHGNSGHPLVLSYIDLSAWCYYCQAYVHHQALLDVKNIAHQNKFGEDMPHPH
Description: Inhibition of human KDAC6 at 30 uM using FITC-labeled histone H4 acetylated peptide as substrate after 60 mins by fluorescence assay relative to control

[3] = biological target: T3, Histone deacetylase 8 (Homo sapiens) (UniProt Q9BY41); assay: Inhibition of human KDAC8 at 30 uM after 60 mins by fluorescence assay relative to control
T3 sequence (whole entry): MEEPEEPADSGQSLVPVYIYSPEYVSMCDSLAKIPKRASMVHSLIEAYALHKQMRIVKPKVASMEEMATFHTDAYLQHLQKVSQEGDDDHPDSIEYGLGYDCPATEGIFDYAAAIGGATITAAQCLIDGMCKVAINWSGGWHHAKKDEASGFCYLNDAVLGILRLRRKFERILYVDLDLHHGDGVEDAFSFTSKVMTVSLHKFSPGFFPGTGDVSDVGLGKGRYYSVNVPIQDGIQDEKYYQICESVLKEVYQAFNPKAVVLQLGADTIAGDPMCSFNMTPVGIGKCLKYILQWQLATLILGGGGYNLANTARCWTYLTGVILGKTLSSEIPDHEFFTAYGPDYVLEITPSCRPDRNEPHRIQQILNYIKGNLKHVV

[4] = biological target: T4, Protein deacetylase HDAC6 (Homo sapiens, UniProt Q9UBN7); assay: Inhibition of human KDAC6 using FITC-labeled histone H4 acetylated peptide as substrate after 60 mins by fluorescence assay
T4 sequence (Q9UBN7 whole entry): T2 sequence (whole entry)

Histone deacetylase 3 [5] = biological target: T5, Histone deacetylase 3 (Homo sapiens, UniProt O15379); assay: Inhibition of human KDAC3 using FITC-labeled p53 acetylated peptide as substrate after 60 mins by fluorescence assay
Histone deacetylase 3 [6] = biological target: T5, Histone deacetylase 3; assay: Inhibition of human KDAC3 at 30 uM using FITC-labeled p53 acetylated peptide as substrate after 60 mins by fluorescence assay relative to control
Histone deacetylase 1 [7] = biological target: T1, Histone deacetylase 1; assay: Inhibition of human KDAC1 using substrate A after 60 mins by fluorescence assay
Histone deacetylase 8 = biological target: T6, Histone deacetylase 8 (Homo sapiens, UniProt Q9BY41); assay: Inhibition of human KDAC8 after 60 mins by fluorescence assay
T6 sequence (Q9BY41 whole entry): T3 sequence (whole entry)

T1 sequence (Q13547 whole entry): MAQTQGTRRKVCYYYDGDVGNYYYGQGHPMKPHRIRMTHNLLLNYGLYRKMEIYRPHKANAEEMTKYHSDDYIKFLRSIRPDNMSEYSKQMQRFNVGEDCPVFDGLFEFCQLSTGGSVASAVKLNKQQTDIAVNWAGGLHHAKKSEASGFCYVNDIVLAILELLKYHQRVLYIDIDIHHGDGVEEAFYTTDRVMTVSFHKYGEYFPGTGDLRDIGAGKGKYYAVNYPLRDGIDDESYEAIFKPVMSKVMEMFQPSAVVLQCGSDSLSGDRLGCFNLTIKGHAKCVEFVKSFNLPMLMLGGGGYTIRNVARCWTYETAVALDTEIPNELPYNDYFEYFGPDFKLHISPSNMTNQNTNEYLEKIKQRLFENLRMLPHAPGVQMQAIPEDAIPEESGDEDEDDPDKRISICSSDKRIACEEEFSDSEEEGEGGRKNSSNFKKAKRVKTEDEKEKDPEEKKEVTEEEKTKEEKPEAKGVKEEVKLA
T5 sequence (O15379 whole entry): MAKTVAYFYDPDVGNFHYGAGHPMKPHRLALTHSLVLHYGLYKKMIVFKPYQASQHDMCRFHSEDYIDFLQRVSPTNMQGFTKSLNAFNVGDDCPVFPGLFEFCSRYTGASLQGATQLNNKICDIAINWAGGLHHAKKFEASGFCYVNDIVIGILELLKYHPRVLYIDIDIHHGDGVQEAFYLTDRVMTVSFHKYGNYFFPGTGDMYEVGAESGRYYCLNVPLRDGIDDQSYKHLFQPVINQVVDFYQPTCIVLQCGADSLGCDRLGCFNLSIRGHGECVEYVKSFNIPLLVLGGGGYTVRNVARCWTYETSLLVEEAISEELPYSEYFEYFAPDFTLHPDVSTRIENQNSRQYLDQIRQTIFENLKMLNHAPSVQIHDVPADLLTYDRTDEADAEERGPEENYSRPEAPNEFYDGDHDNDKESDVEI

SMILES | inhibition (Histone deacetylase 1 [1]) [%] | inhibition [2] [%] | inhibition [3] [%] | IC50 [4] [µM] | IC50 (Histone deacetylase 3 [5]) [µM] | inhibition (Histone deacetylase 3 [6]) [%] | IC50 (Histone deacetylase 1 [7]) [µM] | IC50 (Histone deacetylase 8) [µM]
CC(C)(C)OC[C@@H]1N=C(c2ccccc2)c2ccccc2NC1=O | 1.48 | 2.44 | 0 | > 30 | > 30 | 0.38 | > 30 | > 30
Cc1c(C)c(S(=O)(=O)NC(=N)NCCC[C@@H]2N=C(c3ccccc3)c3ccccc3NC2=O)c(C)c2c1OC(C)(C)C2 | 8 | 0 | 7.99 | > 30 | > 30 | 0.47 | > 30 | > 30
COC(=O)CCCCN1C(=O)[C@H](CC(C)C)N=C(c2ccccc2)c2ccccc21 | 8.85 | 0 | 7.63 | > 30 | > 30 | 0 | > 30 | > 30
CC(C)(C)OC(=O)NCCCC[C@@H]1N=C(c2ccccc2)c2ccccc2N(CCCCC(=O)NO)C1=O | 84.4 | 89.9 | 56 | 3.06 | 0.59 | 98.8 | 4.63 | 21.8
CC(C)(C)OC(=O)C[C@H]1N=C(c2ccccc2)c2ccccc2NC1=O | 0.37 | 0 | 0 | > 30 | > 30 | 0 | > 30 | > 30
CC(C)[C@@H]1N=C(c2ccccc2)c2ccccc2N(CCCCC(=O)O)C1=O | 2.24 | 0 | 3.18 | > 30 | > 30 | 0 | > 30 | > 30
CC[C@@H](C)[C@@H]1N=C(c2ccccc2)c2ccccc2N(CCCCC(=O)NO)C1=O | 75.1 | 90.9 | 33.1 | 3.75 | 1.03 | 96.4 | 11 | > 30
CC(C)(C)SC[C@H]1N=C(c2ccccc2)c2ccccc2N(CCCCC(=O)NO)C1=O | 79.9 | 88 | 44.6 | 5.37 | 0.75 | 98.8 | 7.99 | > 30
O=C(O)CCCCN1C(=O)[C@H](Cc2ccccc2)N=C(c2ccccc2)c2ccccc21 | 11.9 | 0 | 6.22 | > 30 | > 30 | 0.91 | > 30 | > 30
O=C(CCCCN1C(=O)CN=C(c2ccccc2)c2ccccc21)NO | 88.3 | 94.2 | 75.9 | 1.89 | 0.66 | 97.2 | 3.84 | 6.72
COC(=O)CCCCN1C(=O)[C@H](COC(C)(C)C)N=C(c2ccccc2)c2ccccc21 | 0.36 | 0 | 5 | > 30 | > 30 | 0 | > 30 | > 30
O=C(CCCCN1C(=O)[C@H](Cc2cnc[nH]2)N=C(c2ccccc2)c2ccccc21)NO | 61.4 | 84.6 | 42.4 | 4.98 | 1.32 | 99 | 13.9 | > 30
CC(C)[C@@H]1N=C(c2ccccc2)c2ccccc2NC1=O | 0 | 3.25 | 0 | > 30 | > 30 | 0 | > 30 | > 30
O=C(CCCCN1C(=O)[C@H](CC(=O)NO)N=C(c2ccccc2)c2ccccc21)NO | 74.7 | 42.5 | 10 | > 30 | 10.4 | 77.7 | 9.99 | > 30
CC(C)(C)OC(=O)C[C@@H]1N=C(c2ccccc2)c2ccccc2NC1=O | 9.6 | 0 | 5.34 | > 30 | > 30 | 3.95 | > 30 | > 30
O=C(CCCCN1C(=O)[C@H](Cc2ccccc2)N=C(c2ccccc2)c2ccccc21)NO | 75 | 95.1 | 68.6 | 1.98 | 0.49 | 97 | 8.51 | 12.7
CC(C)(C)OC[C@@H]1N=C(c2ccccc2)c2ccccc2N(CCCCC(=O)NO)C1=O | 73.7 | 85.1 | 26.9 | 5.05 | 1.21 | 94.6 | 9 | > 30
C[C@H](OCc1ccccc1)[C@@H]1N=C(c2ccccc2)c2ccccc2N(CCCCC(=O)O)C1=O | 2.94 | 0 | 15.4 | > 30 | > 30 | 0 | > 30 | > 30
CC(C)(C)OC(=O)n1cc(C[C@@H]2N=C(c3ccccc3)c3ccccc3NC2=O)c2ccccc21 | 6.47 | 0 | 0 | > 30 | > 30 | 1.32 | > 30 | > 30
CC(C)(C)Oc1ccc(C[C@@H]2N=C(c3ccccc3)c3ccccc3N(CCCCC(=O)O)C2=O)cc1 | 4.65 | 0.28 | 2.15 | > 30 | > 30 | 1.05 | > 30 | > 30
C[C@H](OCc1ccccc1)[C@@H]1N=C(c2ccccc2)c2ccccc2NC1=O | 1.5 | 3.08 | 9.14 | > 30 | > 30 | 2.49 | > 30 | > 30
COC(=O)CCCCN1C(=O)[C@H](CCCCNC(=O)OC(C)(C)C)N=C(c2ccccc2)c2ccccc21 | 8.22 | 0 | 1.03 | > 30 | > 30 | 1.96 | > 30 | > 30
CC(C)(C)OC[C@@H]1N=C(c2ccccc2)c2ccccc2N(CCCCC(=O)O)C1=O | 3.74 | 0 | 5.87 | > 30 | > 30 | 0 | > 30 | > 30
O=C(O)CCCCN1C(=O)CN=C(c2ccccc2)c2ccccc21 | 6.45 | 0 | 4.33 | > 30 | > 30 | 0 | > 30 | > 30
